Measured values as given in patent US10209240B2, “Predicting human developmental toxicity of pharmaceuticals using human stem-like cells and metabolomic ratios” (STEMINA BIOMARKER DISCOVERY, INC., priority 2012, dated 2019).
Where two headings read alike, the source gives them in different places.

Legend:
Rabbit = settings: cited from earlier work
[1] = summarized from TERIS and Briggs et al. 2011, cited from earlier work; for Preclinical in vivo developmental effects: application set compounds
WA09 hES cells [2] = system: WA09 hES cells
Experimental: Phase I hES Cell Compound Exposure. hES cells were treated with a test compound at a single concentration equivalent to the compound's published therapeutic Cmax. […] This was done to ensure that enough cells were present at the time of sample collection to provide a signal for LC-HRMS analysis. For test compound exposure, all compound stock solutions, with the exception of valproic acid, were made with DMSO (Sigma-Aldrich). […] Each 96-well plate included media controls with and without test compound, 0.1% DMSO solvent control cells and cells exposed to a single concentration of eight different test compounds (FIG. 1A). Media controls were included on each plate to assess the impact of test compound on the sample matrix. hES cells were exposed to the test compound for 72 hours, with media and test compound replacement every 24 hours. Cells were monitored throughout the treatment period to ensure that no differentiation was occurring. After 72 hours of treatment, the spent media from the final 24-hour treatment period was collected and added to acetonitrile (Sigma-Aldrich, final acetonitrile concentration 40%), to halt metabolic processes and precipitate proteins from solution. Individual wells from each 96-well plate were collected and analyzed as separate samples. These samples were then stored at −80° C. until prepared for LC-HRMS analysis. Cell viability was assessed using the CellTiter-Fluor Cell Viability Assay as per the manufacturer's instructions (Promega, Madison, Wis.). Quality control parameters were set such that if the coefficient of variation (CV) for the viability relative fluorescent units (RFU) of the 6 cellular samples in a treatment exceeded 10% and no outliers were identified using the Grubb's test (see the worldwide web at graphpad.com/quickcalcs/Grubbs1.cfm), analysis was halted for that compound and the cell culture experiment was repeated. If outliers were present, the outlier sample was removed from analysis. If the CV for the DMSO control cell samples on a plate were outside of the quality control parameters, the entire plate was repeated. hES cell exposure to each of the 23 compounds was replicated a total of nine times.
(§1) Phase 2 hES Cell Compound Exposure. […] The standard compound exposure levels used for most compounds were nine, 3-fold dilutions ranging from 0.04 μM-300 μM (FIG. 1B). […] The stock solution was diluted 1:1000 in mTeSR1 media and subsequent dilutions were performed in mTeSR1 containing 0.1% DMSO such that the final concentration of DMSO was 0.1% in all treatments. hES cells were treated for 72 hours and spent media from the last 24-hour treatment period was collected and added to acetonitrile containing ^13C6 labeled arginine (Cambridge Isotope Laboratories, Andover, Md.) as described under Phase 1. Spent media samples were stored at −80° C. until prepared for LC-HRMS analysis. Cell viability was assessed using the CellTiter-Fluor Cell Viability Assay. A quality control step was included with criteria that the CV of the measured viability RFU of the DMSO control cells could not exceed 10% for a plate to undergo LC-HRMS analysis. A dose response curve was fit to the reference treatment (0.1% DMSO treated control cells) normalized data (Viability RFUTrt X/Viability RFUDMSO) using a four-parameter log-logistic model with the R package “drc” (Ritz and Streibig, 2005, J Statistical Software; 12:1-22).
Phase 2 Prediction of Developmental Toxicity Potential. […] FIG. 2 illustrates how the assay is applied in this situation. A test compound is considered to be teratogenic at the exposure level where the o/c ratio exceeds the teratogenicity threshold (red box, FIG. 2).

Rodent = settings: cited from earlier work; for Rodent developmental toxicity testing, result in words: relation to maternal toxicity where stated; for Rodent in vivo test results: Embryotoxic: embryotoxic effect in the absence of teratogenic effects and maternal toxicity; for Rodent in vivo test results: Teratogenic: structural malformations in the absence of maternal toxicity
[3] = cited from earlier work
WA09 hES cells [4] = assay: Phase 2 targeted biomarker assay, ornithine/cystine ratio, 9-point dose response; settings: for Teratogenicity Potential (μM) O/C Ratio: human, 72 h
Source text: Undifferentiated hES Cell Line Maintenance (Phases 1 and 2). WA09 hES cells were obtained from the WiCell Research Institute (Madison, Wis.) and were maintained in feeder free conditions using mTeSR1 media (StemCell Technologies, Inc., Vancouver, BC, Canada) on hESC-qualified Matrigel (BD Biosciences, San Jose, Calif.) coated 6-well plates. To maintain the undifferentiated stem cell population, differentiated colonies were removed daily through aspiration and media was replaced. Additionally, the hES cells were only used in experiments up to passage 40 and were karyotyped approximately every 10 passages to minimize and monitor the potential for genetic instability. hES cells were passaged at 90-95% confluency (approximately every 7 days) using Versene (Life Technologies, Grand Island, N.Y.). Cell cultures were maintained at 37° C. under 5% CO2.
96-well hES Cell Plating (Phases 1 and 2). All experimental treatments were carried out in 96-well plates. To minimize plating variability and increase reproducibility, hES cells were plated as a single cell suspension and maintained in an undifferentiated state during compound exposure. Prior to plating in the 96-well plates, hES cells were removed from a 6-well plate using TrypLE (Life Technologies). The cells were washed with DMEM/F12 (Life Technologies) and resuspended in mTeSR1 containing 10 μM Y27632 Rho-associated kinase (ROCK) inhibitor (Merck KGaA/Calbiochem, Darmstadt, Germany). The ROCK inhibitor is added to the plating media to increase plating efficiency by decreasing dissociation-induced apoptosis. The inner 60 wells of hESC-qualified Matrigel coated 96-well plates were seeded at a density of 100,000 cells per well. The outer wells of the plate contained an equal volume media to minimize differences in humidity across the plate. Compound exposure began 24 hours after plating.
as §1
Sample Preparation (Phases 1 and 2). High molecular weight constituents (>10 KDa) of the spent media samples were removed using a Millipore Multiscreen Ultracel-10 filter plate (EMD Millipore, Billerica, Mass.). Prior to sample filtration, the filter plate was washed with 0.1% NaOH to remove a known contaminant polymer. The plate was then rinsed twice with HPLC-grade water to remove residual polymers and NaOH. Spent media samples were added to the washed filter plate. In Phase 1, samples were spiked with ^13C6 labeled arginine. Samples were centrifuged at 2,000×g at 4° C. for 200 minutes. The filtrate was collected and concentrated overnight in a Savant High Capacity Speedvac Plus Concentrator.

Humans = settings: cited from earlier work
[5] = application set, peak plasma concentration in humans
[6] = test set, therapeutic peak plasma in vivo concentration, human

Compound | Rabbit prediction (Rabbit; application set) | Preclinical in vivo developmental effects [1] | Teratogenicity Potential (μM) Cell Viability (WA09 hES cells [2]; human, 72 h) [µM] | Rodent prediction (Rodent; application set) | Rodent developmental toxicity testing, result in words (Rodent) | Cmax [3, 5] [µM] | Targeted Biomarker Assay prediction (WA09 hES cells [4]) | Teratogenicity Potential (μM) O/C Ratio (WA09 hES cells [4]) [µM] | Rodent in vivo test results: Teratogenic (Rodent; application set) | further results
Nc1ccn(C[C@@H](CO)OCP(=O)(O)O)c(=O)n1 [Cidofovir] | NON | None | 1.9 | NON | only embryotoxic at exposure levels that also caused maternal toxicity | 41.2 | TER | 0.3 | – | –
Nc1nc2c(ncn2COCCO)c(=O)[nH]1 [Acycloguanosine] | – | – | >300 | – | – | – | NON | – | – | Viability Prediction (WA09 hES cells [2]; test set, teratogenicity potential scored against therapeutic Cmax): NON; Humans (known human developmental toxicity) (Humans; training and test set): NON; Cmax [3, 6]: 3 µM
CCC(=O)NCC[C@@H]1CCc2ccc3c(c21)CCO3 [Ramelteon] | NON | None | >300 | NON | only embryotoxic at exposure levels that also caused maternal toxicity | 0.02 | NON | 34 | – | –
COc1ccccc1Oc1c(NS(=O)(=O)c2ccc(C(C)(C)C)cc2)nc(-c2ncccn2)nc1OCCO [Bosentan] | – | – | 221.9 | – | – | – | NON | 44.9 | – | Rabbit prediction (Rabbit; training and test set): NON; Preclinical in vivo and known human developmental effects ([1]; test set compounds): Craniofacial,; Viability Prediction (WA09 hES cells [2]): NON; Rodent prediction (Rodent; training and test set): TER; Humans (known human developmental toxicity) (Humans; training and test set): TER; Cmax [3, 6]: 2 µM; O/C Ratio Prediction (WA09 hES cells [4]): NON
C[C@H]1[C@H](OC(=O)CCC(=O)O)O[C@@H]2O[C@@]3(C)CC[C@H]4[C@H](C)CC[C@@H]1[C@@]24OO3 [Artesunate] | – | – | 0.58 | – | – | 73.9 | TER | – | – | –
Cn1c(=O)c2c(ncn2C)n(C)c1=O [Caffeine] | – | – | >300 | – | – | – | – | – | – | Humans (known human developmental toxicity) (Humans; in vivo): NON; Cmax ([3]; training set, therapeutic peak plasma in vivo concentration, human): 9.3 µM
CC(C)CN(C[C@@H](O)[C@H](Cc1ccccc1)NC(=O)O[C@H]1CCOC1)S(=O)(=O)c1ccc(N)cc1 [Amprenavir] | TER | Skeletal, embryo toxicity^c | 259.5 | TER | – | 15.1 | NON | 236.9 | + | Rodent in vivo test results: Embryotoxic (Rodent; application set): +
CCN(CC)C(=O)/C(C#N)=C/c1cc(O)c(O)c([N+](=O)[O-])c1 [Entacapone] | NON | Eye defects | 127 | TER | – | 3.9 | TER | 6.7 | + | –
CC(C)(C)C(=O)OCOP(=O)(COCCn1cnc2c(N)ncnc21)OCOC(=O)C(C)(C)C [Adefovir dipivoxil] | – | – | – | – | only embryotoxic at exposure levels that also caused maternal toxicity | 0.03 | TER | – | – | Teratogenicity Potential (μM) Cell Viability (WA09 hES cells [2]; application set, interpolated concentration where cell viability dose response curve crosses teratogenicity threshold 0.88, 72 hours): 0.02 µM
Nc1nc(NC2CC2)c2ncn([C@H]3C=C[C@@H](CO)C3)c2n1 [Abacavir] | NON | Skeletal, embryo toxicity^c | 94.1 | TER | – | 14.9 | NON | 95.1 | + | Rodent in vivo test results: Embryotoxic (Rodent; application set): +
